22 compounds from patent US20050014706A1, “Method of treating tuberculosis” (priority 2003, published 2005) can be followed below.

Each structure is given as a SMILES string. Values after ≈ are worked out from the molar mass of the structure shown. Where two headings read alike, the source gives them in different places.

The test system of this assay is M. tuberculosis H37Rv. Briefly: MIC vs. M. tuberculosis H37Rv, microplate Alamar Blue assay (MABA). In kind it is cell-based. (Alamar Blue is a resazurin reagent that responds to reducing activity.)
Setting [1] is: Table 1a, 11,12-carbamate derivatives, read-out: Anti-TB Activity MIC.
The mark [2] stands for this setting: Table 3, parallel-synthesis carbazate library products.

In general, MIC refers to the least concentration at which growth counts as inhibited. As for `CC[C@H]1OC(=O)[C@H](C)C(=O)[C@H](C)[C@@H](O[C@@H]2O[C@H](C)C[C@H](N(C)C)[C@H]2O)[C@](C)(OC)C[C@@H](C)C(=O)[C@H](C)[C@H]2N(CCCCn3ccnc3)C(=O)O[C@]12C` [RU61205], the MIC under setting [1] was found to be 112 µM (≈ 82.3 µg/mL).
Take `CC[C@H]1OC(=O)[C@H](C)[C@@H](O[C@H]2CC(C)(OC)[C@@H](O)[C@H](C)O2)[C@H](C)[C@@H](O[C@@H]2O[C@H](C)C[C@H](N(C)C)[C@H]2O)[C@](C)(OC)C[C@@H](C)C(=O)[C@H](C)[C@H]2N(NCc3cnn(-c4ccc(F)cc4)c3C)C(=O)O[C@]12C` (some centres unmarked) [D7′]: under setting [2], the MIC worked out at 13 µM (≈ 12.7 µg/mL).
The same measure, in the same setting: with `CC[C@H]1OC(=O)[C@H](C)[C@@H](O[C@H]2CC(C)(OC)[C@@H](O)[C@H](C)O2)[C@H](C)[C@@H](O[C@@H]2O[C@H](C)C[C@H](N(C)C)[C@H]2O)[C@](C)(OC)C[C@@H](C)C(=O)[C@H](C)[C@H]2N(NCc3c(C(F)(F)F)nn(C)c3Cl)C(=O)O[C@]12C` (some centres unmarked) [D3′] the figure was 20 µM (≈ 19.7 µg/mL); with `CC[C@H]1OC(=O)[C@H](C)[C@@H](O[C@H]2CC(C)(OC)[C@@H](O)[C@H](C)O2)[C@H](C)[C@@H](O[C@@H]2O[C@H](C)C[C@H](N(C)C)[C@H]2O)[C@](C)(OC)C[C@@H](C)C(=O)[C@H](C)[C@H]2N(NCc3cccnc3)C(=O)O[C@]12C` (some centres unmarked) [D9′], above 15 µM.
Take `CC[C@H]1OC(=O)[C@H](C)C(=O)[C@H](C)[C@@H](O[C@@H]2O[C@H](C)C[C@H](N(C)C)[C@H]2O)[C@](C)(OC)C[C@@H](C)C(=O)[C@H](C)[C@H]2N(NCCc3ccccc3)C(=O)O[C@]12C` [RU70645]: the MIC under setting [1] stood at 14 µM (≈ 10.2 µg/mL).
As for `CC[C@H]1OC(=O)[C@H](C)C(=O)[C@H](C)[C@@H](O[C@@H]2O[C@H](C)C[C@H](N(C)C)[C@H]2O)[C@](C)(OC)C[C@@H](C)C(=O)[C@H](C)[C@H]2N(CCCCn3cnc(-c4cccnc4)c3)C(=O)O[C@]12C` [Telithromycin, reference compound], under setting [1], the MIC turned out to be 48 µM (≈ 39 µg/mL). For the same compound, under “in vitro”, the “MIC / activity vs. M. tuberculosis in words” value was “even less active than clarithromycin”.
Consider `CCC1OC(=O)C(C)(F)C(=O)C(C)C(OC2OC(C)CC(N(C)C)C2O)C(C)(OC)CC(C)C(=O)C(C)C2N(NCCCc3ccnc4ccccc34)C(=O)OC12C` (centres unmarked) [RU3562], for which the minimum inhibitory concentration (MIC) under setting [1] is on record as 16 µM (≈ 13 µg/mL).
Take `CC[C@H]1OC(=O)[C@H](C)[C@@H](O[C@H]2CC(C)(OC)[C@@H](O)[C@H](C)O2)[C@H](C)[C@@H](O[C@@H]2O[C@H](C)C[C@H](N(C)C)[C@H]2O)[C@](C)(OC)C[C@@H](C)C(=O)[C@H](C)[C@H]2N(NCc3c(C)noc3C)C(=O)O[C@]12C` (some centres unmarked) [C6′]: the MIC under setting [2] was above 17 µM.
On the same count and under the same terms, in the case of `CC[C@H]1OC(=O)[C@H](C)[C@@H](O[C@H]2CC(C)(OC)[C@@H](O)[C@H](C)O2)[C@H](C)[C@@H](O[C@@H]2O[C@H](C)C[C@H](N(C)C)[C@H]2O)[C@](C)(OC)C[C@@H](C)C(=O)[C@H](C)[C@H]2N(NCc3c(Sc4ccc(Cl)cc4)nc4sccn34)C(=O)O[C@]12C` (some centres unmarked) [H11′] it was 35.4 µM (≈ 37.8 µg/mL).
For `CC[C@H]1OC(=O)[C@H](C)[C@@H](O[C@H]2CC(C)(OC)[C@@H](O)[C@H](C)O2)[C@H](C)[C@@H](O[C@@H]2O[C@H](C)C[C@H](N(C)C)[C@H]2O)[C@](C)(OC)C[C@@H](C)C(=O)[C@H](C)[C@H]2N(NCc3cn(S(=O)(=O)c4ccc(C)cc4)c4ccccc34)C(=O)O[C@]12C` (some centres unmarked) [C4′], under setting [2], the MIC is 11 µM (≈ 11.8 µg/mL).
The same measure, in the same setting: with `CC[C@H]1OC(=O)[C@H](C)[C@@H](O[C@H]2CC(C)(OC)[C@@H](O)[C@H](C)O2)[C@H](C)[C@@H](O[C@@H]2O[C@H](C)C[C@H](N(C)C)[C@H]2O)[C@](C)(OC)C[C@@H](C)C(=O)[C@H](C)[C@H]2N(NCc3ccc(N4CCC(c5ccccc5OC)CC4)c([N+](=O)[O-])c3)C(=O)O[C@]12C` (some centres unmarked) [G12′] the figure was 19 µM (≈ 21.1 µg/mL); with `CC[C@H]1OC(=O)[C@H](C)[C@@H](O[C@H]2CC(C)(OC)[C@@H](O)[C@H](C)O2)[C@H](C)[C@@H](O[C@@H]2O[C@H](C)C[C@H](N(C)C)[C@H]2O)[C@](C)(OC)C[C@@H](C)C(=O)[C@H](C)[C@H]2N(NCc3cc(Cl)cc(Br)c3O)C(=O)O[C@]12C` (some centres unmarked) [G8′], 14 µM (≈ 14.1 µg/mL); with `CC[C@H]1OC(=O)[C@H](C)[C@@H](O[C@H]2CC(C)(OC)[C@@H](O)[C@H](C)O2)[C@H](C)[C@@H](O[C@@H]2O[C@H](C)C[C@H](N(C)C)[C@H]2O)[C@](C)(OC)C[C@@H](C)C(=O)[C@H](C)[C@H]2N(NCc3sc(C)nc3C)C(=O)O[C@]12C` (some centres unmarked) [F5′], above 19 µM.
Same read-out and setting: in the case of `CC[C@H]1OC(=O)[C@H](C)[C@@H](O[C@H]2CC(C)(OC)[C@@H](O)[C@H](C)O2)[C@H](C)[C@@H](O[C@@H]2O[C@H](C)C[C@H](N(C)C)[C@H]2O)[C@](C)(OC)C[C@@H](C)C(=O)[C@H](C)[C@H]2N(NCc3c[nH]c(=O)[nH]c3=O)C(=O)O[C@]12C` (some centres unmarked) [E8′] it was above 20 µM.
Turning to `CC[C@H]1OC(=O)[C@H](C)[C@@H](O[C@H]2CC(C)(OC)[C@@H](O)[C@H](C)O2)[C@H](C)[C@@H](O[C@@H]2O[C@H](C)C[C@H](N(C)C)[C@H]2O)[C@](C)(OC)C[C@@H](C)C(=O)[C@H](C)[C@H]2N(NCCCc3ccccc3)C(=O)O[C@]12C` (some centres unmarked) [A2′], under setting [2], the MIC came to 10 µM (≈ 9.06 µg/mL).
On the same count and under the same terms, in the case of `CC[C@H]1OC(=O)[C@H](C)[C@@H](O[C@H]2CC(C)(OC)[C@@H](O)[C@H](C)O2)[C@H](C)[C@@H](O[C@@H]2O[C@H](C)C[C@H](N(C)C)[C@H]2O)[C@](C)(OC)C[C@@H](C)C(=O)[C@H](C)[C@H]2N(NCc3nc4ccccc4s3)C(=O)O[C@]12C` (some centres unmarked) [F7′] it was 16 µM (≈ 15 µg/mL); in that of `CCOC(=O)c1cc(-c2ccc(Cl)cc2)oc1CNN1C(=O)O[C@]2(C)[C@@H](CC)OC(=O)[C@H](C)[C@@H](O[C@H]3CC(C)(OC)[C@@H](O)[C@H](C)O3)[C@H](C)[C@@H](O[C@@H]3O[C@H](C)C[C@H](N(C)C)[C@H]3O)[C@](C)(OC)C[C@@H](C)C(=O)[C@H](C)[C@@H]12` (some centres unmarked) [B1′], above 18 µM.
On the same count and under the same terms, in the case of `CC[C@H]1OC(=O)[C@H](C)[C@@H](O[C@H]2CC(C)(OC)[C@@H](O)[C@H](C)O2)[C@H](C)[C@@H](O[C@@H]2O[C@H](C)C[C@H](N(C)C)[C@H]2O)[C@](C)(OC)C[C@@H](C)C(=O)[C@H](C)[C@H]2N(NCc3cc4ccccc4s3)C(=O)O[C@]12C` (some centres unmarked) [G2′] it was 11 µM (≈ 10.3 µg/mL).
Same read-out and setting: with `CC[C@H]1OC(=O)[C@H](C)[C@@H](O[C@H]2CC(C)(OC)[C@@H](O)[C@H](C)O2)[C@H](C)[C@@H](O[C@@H]2O[C@H](C)C[C@H](N(C)C)[C@H]2O)[C@](C)(OC)C[C@@H](C)C(=O)[C@H](C)[C@H]2N(NCc3cccn3CCC#N)C(=O)O[C@]12C` (some centres unmarked) [E10′] the figure was 20 µM (≈ 18.4 µg/mL).
Under setting [2], `CC[C@H]1OC(=O)[C@H](C)[C@@H](O[C@H]2CC(C)(OC)[C@@H](O)[C@H](C)O2)[C@H](C)[C@@H](O[C@@H]2O[C@H](C)C[C@H](N(C)C)[C@H]2O)[C@](C)(OC)C[C@@H](C)C(=O)[C@H](C)[C@H]2N(NCc3cn(Cc4ccccc4)c4ccccc34)C(=O)O[C@]12C` (some centres unmarked) [C2′] showed an MIC of 7 µM (≈ 7.05 µg/mL).
Still for that read-out and setting: with `CC[C@H]1OC(=O)[C@H](C)[C@@H](O[C@H]2CC(C)(OC)[C@@H](O)[C@H](C)O2)[C@H](C)[C@@H](O[C@@H]2O[C@H](C)C[C@H](N(C)C)[C@H]2O)[C@](C)(OC)C[C@@H](C)C(=O)[C@H](C)[C@H]2N(NCc3c(Cl)cccc3Cl)C(=O)O[C@]12C` (some centres unmarked) [H1′] the figure was 11 µM (≈ 10.4 µg/mL); with `CC[C@H]1OC(=O)[C@H](C)[C@@H](O[C@H]2CC(C)(OC)[C@@H](O)[C@H](C)O2)[C@H](C)[C@@H](O[C@@H]2O[C@H](C)C[C@H](N(C)C)[C@H]2O)[C@](C)(OC)C[C@@H](C)C(=O)[C@H](C)[C@H]2N(NCc3c[nH]nc3-c3ccc(F)cc3)C(=O)O[C@]12C` (some centres unmarked) [D5′], 25 µM (≈ 24.1 µg/mL).
